Experimental findings from patent publication US11123398B2, “Chemotherapeutic combinations of cationic antimicrobial peptides and chemotherapeutics” (LYTIX BIOPHARMA AS, priority 2014, dated 2021) are described below.

Read-outs that look alike come from different tables or passages of the source. Non-standard residues stand in square brackets, D forms with d. Residues, ends and D or L forms follow the SMILES beside them. Dip = N[C@H](C(=O)O)C(c1ccccc1)c1ccccc1

Assay [1] has as its system A375 cells. The assay is described as follows: Release of HMGB1 (Western blot). The format is cell-based, human. Conditions: 35 μM, up to 60 min. As for the experimental part:
A375 cells were seeded with 3×10^5 cells/well in 6-well plates in a complete media, and allowed to adhere overnight. Cells were treated with LTX-315 or LTX-328 at 35 μM, and incubated at 37° C. and 5% CO2 for different time points (5, 10, 15, 30, 60 min), and negative controls were serum-free RPMI-1650. Supernatants (S) were collected and centrifuged at 1,400 g for five minutes, and cell lysates (L) were harvested after washing with PBS twice and then subsequently lysed using a 4× Sample buffer (Invitrogen, number), 0.1 M DTT (Sigma number) and water. Supernatants were concentrated using Amicon Ultra 50K centrifugal filters (Millipore UFC505024), and the cell lysate was sonicated. Both supernatants and lysate were boiled and resolved in a 10% sodium dodecyl sulfate polyacrylamide gel electrophoresis (SDS-PAGE), and then electro transferred to a polyvindiline difluoride (PVDF) membrane (Millipore). The membrane was blocked in 5% milk and incubated with the HMGB1 antibody (rabbit, polyclonal, abcam ab 18256); the membrane was then rinsed several times with TBST, incubated with a horseradish peroxidase (HRP)-conjugated secondary antibody (abcam ab6721), rinsed again with TBST and then developed using WB Luminol Reagent (Santa Cruz Biotechnology, Heidelberg, Germany).

Assay [2] in a line: Exposure time for cell killing (background statement). It counts as cell-based.
In assay [3] the test system is CT26WT colon carcinoma cells. The assay is described as follows: Re-challenge with CT26WT colon carcinoma in mice with complete regression. The format is in vivo, Balb-c mice. Conditions: of 9 mice previously treated with 0.5 or 1 mg. The procedure: Methods: Female Balb-c mice (n=4), previously treated with LTX-315, 1 mg) or (n=9); previously treated with LTX-315 0.5 or 1 mg) were re-inoculated (s.c. in the abdominal area) with either murine A20 B cell lymphoma cells or CT26WT colon carcinoma cells (5 million) respectively 6 weeks following initial treatment with LTX-315. Tumour growth was monitored for up to 36 days following re-inoculation.

In assay [4] the test system is A375 cells. The assay is described as follows: Release of cytochrome-C (ELISA). It counts as cell-based, human. Conditions: 35 μM, 5, 15, 45 min. The procedure:
A375 cells were seeded as with HMGB1 studies, and treated with 35 μM for different time points (5, 15, 45). Supernatants were collected and concentrated as with HMGB1 studies, and samples from the supernatants were analyzed using a 4.5 hour solid form Cytochrome C—Elisa kit (R&D Systems, USA, #DCTCO) following the manufacturer's description. Shortly thereafter, a 50% diluted sample was analyzed and the optical density was determined using a microplate reader set at 450 nm, and this reading was then subtracted from the reading at 540 nm. A standard curve was generated for each set of samples assayed. Samples were run in four parallels, and the cytochrome-c released into the supernatant was expressed as a fold over the level of cytochrome-c in the supernatant of untreated cells.
On the technique in general: An ELISA detects its analyte on a solid surface through an enzyme-linked reagent.

Assay [5] has as its system A375 cells. The assay is described as follows: MTT viability assay, A375 melanoma. It counts as cell-based, human. The conditions noted are these: read-out: IC-50, melanoma cells, MTT. As for the experimental part:
The cytotoxic effect of LTX-315 was investigated using the colorimetric MTT viability assay as described in Eliassen et al. (2002), 22(5): pp 2703-10. The A375 cells were seeded at a concentration of 1×10^5 cells/ml in a volume of 0.1 ml in 96-well plates, and allowed to adhere in a complete growth media overnight. The media was then removed and the cells were washed twice in serum-free, RPMI-1650 media, before adding LTX-315 dissolved in serum-free RPMI at concentrations ranging from 2.5-300 μg/ml, and incubated for 5-180 minutes. Cells treated with a serum-free RPMI were used as negative control cells, while cells treated with 1% Triton X-100 in serum-free media were used as a positive control. The final results were calculated using the mean of three experiments, each with triplicate wells.

The test system of another assay is human A547 cells. The assay is described as follows: TEM, A547 cells. It counts as cell-based. The conditions noted are these: 10 μg/ml, 60 minutes.
In assay [6] the test system is A375 cells. The assay is described as follows: Bright field confocal live cell imaging. The format is cell-based, human. Conditions: LTX-315 at IC-50 value, majority of the cells. The procedure: A375 cells were seeded at 10,000 cells/well in a complete media in Nunc Lab-Tec 8-wells chambered covered glass (Sigma) precoated with 25 μg/ml human fibronectin (Sigma) that were allowed to adhere overnight. Cells were washed twice with a serum-free RPMI, treated with peptide dissolved in RPMI and investigated using Bright on a Leica TCS SP5 confocal microscope, with a 63×/1.2 W objective. The microscope was equipped with an incubation chamber with CO2 and temperature control.

Assay [7] relates to A375 cells. The assay is described as follows: Release of ATP (luciferase assay). The format is cell-based, human. The conditions noted are these: luciferase detection; concentration-dependent. The procedure: The supernatant of LTX-315-treated A375 cells was analyzed using an Enliten ATP luciferase assay kit (Promega, USA). Cells were then seeded as with an ROS assay, and treated with LTX-315 in different incubation times, from 1 to 15 minutes with two parallels, which was then conducted three times. Negative controls were untreated A375 cells exposed to serum-free media alone. Samples were diluted at 1:50 and 1:100, and analyzed with a Luminoscan RT luminometer according to the manufacturer's protocol.

Another assay relates to human red blood cells. The assay is described as follows: Haemolytic activity in vitro. The format is cell-based. Conditions: for Mean cell death (%): 1 h 37° C., 1% RBC. As for the experimental part: Freshly collected human blood was centrifuged at 1500 rpm for 10 minutes in order to isolate the red blood cells. The red blood cells (RBC) were washed three times with PBS [35 mM phosphate buffer with 150 mM NaCl, pH 7.4] by centrifugation at 1500 rpm for 10 minutes, and adjusted to 10% haematocrit with PBS. LTX-315 solutions were added to give a final concentration range of the peptide from 1200 μg/ml to 1 μg/ml and an RBC concentration of 1%. The resulting suspension was incubated with agitation for one hour at 37° C. After incubation the suspension was centrifuged at 4000 rpm for 5 minutes, and the released haemoglobin were monitored by measuring the absorbance of the supernatant at 405 nm. PBS was used as negative control and assumed to cause no haemolysis. 0.1% Triton was used as positive control and assumed to cause complete haemolysis.
Released haemoglobin was monitored by measuring the absorbance of the supernatant at 405 nm, and percent haemolysis was calculated by the equation: % Haemolysis=[(A405 LTX-315−A405 PBS)/(A405 0.1% Triton X-100−A405 PBS)]×100
LTX-315 concentration corresponding to 50% haemolysis (EC50) was determined from a dose-response curve.

The EC50 is the midpoint of the concentration-response curve. Consider `NCCCC[C@H](NC(=O)[C@@H](NC(=O)[C@H](Cc1c[nH]c2ccccc12)NC(=O)[C@H](CCCCN)NC(=O)[C@H](CCCCN)NC(=O)[C@H](Cc1c[nH]c2ccccc12)NC(=O)[C@H](Cc1c[nH]c2ccccc12)NC(=O)[C@H](CCCCN)NC(=O)[C@@H](N)CCCCN)C(c1ccccc1)c1ccccc1)C(N)=O` [LTX-315, K-K-W-W-K-K-W-Dip-K-NH2] (H-KKWWKKW[Dip]K-NH2), for which, in the assay with A375 cells [1], the “HMGB1 translocation from cell lysate to supernatant” value is “gradual translocation from the cell lysate to the supernatant detected”. For the same compound, in assay [2], the “Exposure time causing cell death” value was found to be 30 min. In assay [3], the “Animals with complete regression after re-inoculation” value is on record as 2. For the same compound, in assay [3] (P<0.01 versus control), the “Mice with inhibition of tumour growth after re-inoculation” value amounted to 7. Besides, the “Cytochrome-C in the supernatant compared to untreated control cells” value in the assay on A375 cells [4] was “three times more”. The IC50 is 14 µM with A375 cells [5] (90 minutes of incubation), 30 µM with A375 cells [5] (five minutes of incubation) and at least 833 µM with human red blood cells (red cells of human). Moreover, the “Effect on mitochondrial membrane (TEM)” value with human A547 cells is “disintegration of the mitochondrial membrane”. Moreover, the “Time to rounding up and total collapse of the cells” value with A375 cells [6] is 15 to 60 min. The “ATP release into supernatant” value in the assay on A375 cells [7] was “ATP was detected in the supernatant as early as after 5 minutes of treatment”. The “Mean cell death (%)” value in the assay with human red blood cells (LTX-315 1 μg/ml) is recorded as 0.0%; in the assay on human red blood cells (LTX-315 10 μg/ml), 0.6%; in the assay on human red blood cells (LTX-315 50 μg/ml), 1.6%; in the assay on human red blood cells (LTX-315 100 μg/ml), 3.6%; in the assay on human red blood cells (LTX-315 500 μg/ml), 20.4%; with human red blood cells (LTX-315 1000 μg/ml) it was 38.2%. In the assay on human red blood cells (LTX-315 1200 μg/ml), the “Mean cell death (%)” value worked out at 37.7%. In addition, the “Mean EC50 (50% haemolysis)” value with human red blood cells (human red blood cells) is listed as “greater than 1200 μg/ml”. Besides, in the assay on human red blood cells (human red blood cells, read-out: Mean EC50 (50% haemolysis)), the concentration for a half-maximal effect (EC50) was above 833 µM.
